For one series, the target named is human recombinant PDE4A (Homo sapiens (Human), UniProt P27815). In words: PDE fluorescence polarization assay (BPS Bioscience kit), PDE4A. Type of series: biochemical. Particulars: FAM-cAMP substrate, 1 hr at room temperature; read-out: IC50 for inhibiting PDE4A. As for the experimental part: (§1) The inhibition of PDE4 (e.g., PDE4A, PDE4C) activity by the compounds (e.g., compound-1, compound-2, compound-3, compound-4, compound-5, and compound-6) are monitored using the PDE fluorescence polarization assay kits from BPS Bioscience (San Diego, USA) following the provided procedure. This assay is based on the selective binding of the fluorescent dye FAM-labelled AMP generated by the PDEs from the FAM-cAMP to its binding beads.
(§2) Briefly, compounds (2.5 ul of different concentrations diluted in the assay buffer) were mixed with 12.5 uL of the FAM-cAMP substrate (200 nM in the assay buffer) in a 384-well plate, 10 ul of the human recombinant PDE4A (BPS, Catalog #60340) or PDE4C (BPS, Catalog #60384) was added. The plate was incubated for 1 hr at room temperature. 50 ul of the binding agent for FAM-AMP was added. The mixture was incubated at room temperature for 20 min. The amount of binding agent bound FAM-AMP was measured by the fluorescence polarization method on the Envision spectrometer. The potency (IC50 value, Table1) of exemplified compounds was calculated from the dose-response curve using the 4-parameter non-linear regression fitting routine.
(In general: Polarisation of emitted light reports the rotation of a fluorescent probe.)

The next series addresses human recombinant PDE4C (Homo sapiens (Human), UniProt Q08493). Put plainly: PDE fluorescence polarization assay (BPS Bioscience kit), PDE4C. It is filed as biochemical. Particulars: FAM-cAMP substrate, 1 hr at room temperature; read-out: IC50 for inhibiting PDE4C. As to the method: as §1, §2
Series [1] can be described thus: Blood level of compound-6 produced after oral dosing of compound-1 in mice. Particulars: 5 mg/kg. Type of series: in vivo. As for the experimental part:
The exemplified compound-1 (formulated at 0.5 mg/mL in 0.5% carboxymethyl cellulose (CMC)/0.25% Tween-80 in water as a suspension) was dosed orally to 4 mice at 5 mg/kg. […] Approximately 200 ng/mL of compound-6 was detected in the blood at 15 min. Compound-6 blood level peaked at approximately 250 ng/mL between 1 to 2 hrs, and mostly cleared to around 25 ng/mL at 6 hr. […] This kinetic profile of compound-6 blood level provides the opportunities to treat diseases that are responsive to compound-6 treatment, beyond dosing compound-6 directly, such as reducing the expected high Cmax-caused side effects from directly dosing compound-6.

This note sets out measurements from US11987556B2, “Dual-functional compounds and methods of use” (BIOFRONT THERAPEUTICS (BEIJING) CO., LTD., priority 2020, dated 2024).

For orientation: IC50 means the midpoint of a concentration-inhibition curve.

Sequence of human recombinant PDE4A (P27815 other isoform, or with tags, fused parts or gaps isoform P27815-4): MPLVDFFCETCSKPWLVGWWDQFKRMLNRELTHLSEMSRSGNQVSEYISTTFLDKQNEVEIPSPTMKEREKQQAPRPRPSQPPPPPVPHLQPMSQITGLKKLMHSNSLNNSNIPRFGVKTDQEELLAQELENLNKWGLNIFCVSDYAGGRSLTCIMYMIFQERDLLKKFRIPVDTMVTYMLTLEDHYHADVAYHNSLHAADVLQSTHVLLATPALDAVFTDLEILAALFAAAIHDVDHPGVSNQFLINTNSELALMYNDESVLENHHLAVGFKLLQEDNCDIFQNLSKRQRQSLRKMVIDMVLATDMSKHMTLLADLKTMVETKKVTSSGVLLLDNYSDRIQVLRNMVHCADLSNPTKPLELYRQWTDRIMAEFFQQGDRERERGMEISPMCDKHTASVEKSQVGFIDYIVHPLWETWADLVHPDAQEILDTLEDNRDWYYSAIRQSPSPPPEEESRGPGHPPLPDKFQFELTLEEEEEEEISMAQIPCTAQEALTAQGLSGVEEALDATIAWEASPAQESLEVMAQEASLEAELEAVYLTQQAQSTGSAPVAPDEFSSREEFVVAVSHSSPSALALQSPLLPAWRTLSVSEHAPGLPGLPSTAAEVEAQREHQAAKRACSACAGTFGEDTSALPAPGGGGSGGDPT
Sequence of human recombinant PDE4C (Q08493 whole entry): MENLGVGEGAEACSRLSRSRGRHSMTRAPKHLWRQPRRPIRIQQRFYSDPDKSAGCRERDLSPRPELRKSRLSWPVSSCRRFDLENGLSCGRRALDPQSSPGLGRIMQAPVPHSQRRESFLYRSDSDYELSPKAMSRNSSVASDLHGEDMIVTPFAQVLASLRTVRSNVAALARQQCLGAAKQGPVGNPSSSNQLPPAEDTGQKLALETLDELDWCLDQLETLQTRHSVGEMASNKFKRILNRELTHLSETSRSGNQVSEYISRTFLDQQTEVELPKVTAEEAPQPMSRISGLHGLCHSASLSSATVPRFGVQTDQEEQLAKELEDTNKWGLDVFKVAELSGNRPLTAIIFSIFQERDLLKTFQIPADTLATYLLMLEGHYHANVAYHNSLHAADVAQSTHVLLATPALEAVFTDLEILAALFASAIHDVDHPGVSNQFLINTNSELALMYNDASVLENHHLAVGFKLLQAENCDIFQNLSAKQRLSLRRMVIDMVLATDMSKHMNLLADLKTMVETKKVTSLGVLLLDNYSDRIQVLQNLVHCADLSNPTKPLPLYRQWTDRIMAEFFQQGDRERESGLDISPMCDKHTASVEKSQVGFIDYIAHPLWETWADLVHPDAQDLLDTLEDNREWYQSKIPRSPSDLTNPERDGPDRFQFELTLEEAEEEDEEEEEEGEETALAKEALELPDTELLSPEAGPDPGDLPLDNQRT

As to `CCOc1cc([C@@H](CS(C)(=O)=O)N2C(=O)c3cccc(NC(=O)CNC(=O)O[C@H]4CO[C@H]5[C@@H]4OC[C@H]5O[N+](=O)[O-])c3C2=O)ccc1OC` [compound-5, (3S,3aR,6R,6aS)-6-(nitrooxy)hexahydrofuro[3,2-b]furan-3-yl (2-((2-((S)-1-(3-ethoxy-4-methoxyphenyl)-2-(methylsulfonyl)ethyl)-1,3-dioxoisoindolin-4-yl)amino)-2-oxoethyl)carbamate], the values for the IC50 on human recombinant PDE4A and at human recombinant PDE4C were 38 nM and 826 nM, respectively.
The like results for `CCOc1cc([C@@H](CS(C)(=O)=O)N2C(=O)c3cccc(NC(=O)CNC(=O)C(C)(C)CO[N+](=O)[O-])c3C2=O)ccc1OC` [compound-3, (S)-3-((2-((2-(1-(3-ethoxy-4-methoxyphenyl)-2-(methylsulfonyl)ethyl)-1,3-dioxoisoindolin-4-yl)amino)-2-oxoethyl)amino)-2,2-dimethyl-3-oxopropyl nitrate] were, in that order, 215 nM and 1020 nM.
On to `CCOc1cc([C@@H](CS(C)(=O)=O)N2C(=O)c3cccc(NC(=O)CO)c3C2=O)ccc1OC` [compound-6, N-{2-[(1S)-1-(3-ethoxy-4-methoxyphenyl)-2-methanesulfonylethyl]-1,3-dioxoisoindol-4-yl}-2-hydroxyacetamide], for which the results for the IC50 at human recombinant PDE4A and on human recombinant PDE4C were 214 nM and 734 nM, respectively.
In the case of `CCOc1cc([C@@H](CS(C)(=O)=O)N2C(=O)c3cccc(NC(=O)COC(=O)C(C)(C)CO[N+](=O)[O-])c3C2=O)ccc1OC` [compound-1, (S)-2-((2-(1-(3-ethoxy-4-methoxyphenyl)-2-(methylsulfonyl)ethyl)-1,3-dioxoisoindolin-4-yl)amino)-2-oxoethyl 2,2-dimethyl-3-(nitrooxy)propanoate], the IC50 was 178 nM on human recombinant PDE4A and 2230 nM on human recombinant PDE4C. For the same compound, the “bioactivation after oral dosing, forming metabolite compound-6” value in series [1] is listed as “bioactivated rapidly”.
With `CCOc1cc([C@@H](CS(C)(=O)=O)N2C(=O)c3cccc(NC(=O)COC(=O)C(C)(CO[N+](=O)[O-])CO[N+](=O)[O-])c3C2=O)ccc1OC` [compound-2, (S)-2-((2-(1-(3-ethoxy-4-methoxyphenyl)-2-(methylsulfonyl)ethyl)-1,3-dioxoisoindolin-4-yl)amino)-2-oxoethyl 2-methyl-3-(nitrooxy)-2-((nitrooxy)methyl)propanoate], the concentration for half-maximal inhibition (IC50) at human recombinant PDE4A came out at 308 nM; at human recombinant PDE4C, 2260 nM.
The like results for `CCOc1cc([C@@H](CS(C)(=O)=O)N2C(=O)c3cccc(NC(=O)CO[C@H]4CO[C@H]5[C@@H]4OC[C@H]5O[N+](=O)[O-])c3C2=O)ccc1OC` [compound-4, (3R,3aS,6S,6aR)-6-(2-((2-((S)-1-(3-ethoxy-4-methoxyphenyl)-2-(methylsulfonyl)ethyl)-1,3-dioxoisoindolin-4-yl)amino)-2-oxoethoxy)hexahydrofuro[3,2-b]furan-3-yl nitrate] were, in that order, 710 nM and 109 nM.
